The target of one assay is T1, recombinant GSDMD (Homo sapiens, UniProt P57764).
T1 sequence (P57764 1-484): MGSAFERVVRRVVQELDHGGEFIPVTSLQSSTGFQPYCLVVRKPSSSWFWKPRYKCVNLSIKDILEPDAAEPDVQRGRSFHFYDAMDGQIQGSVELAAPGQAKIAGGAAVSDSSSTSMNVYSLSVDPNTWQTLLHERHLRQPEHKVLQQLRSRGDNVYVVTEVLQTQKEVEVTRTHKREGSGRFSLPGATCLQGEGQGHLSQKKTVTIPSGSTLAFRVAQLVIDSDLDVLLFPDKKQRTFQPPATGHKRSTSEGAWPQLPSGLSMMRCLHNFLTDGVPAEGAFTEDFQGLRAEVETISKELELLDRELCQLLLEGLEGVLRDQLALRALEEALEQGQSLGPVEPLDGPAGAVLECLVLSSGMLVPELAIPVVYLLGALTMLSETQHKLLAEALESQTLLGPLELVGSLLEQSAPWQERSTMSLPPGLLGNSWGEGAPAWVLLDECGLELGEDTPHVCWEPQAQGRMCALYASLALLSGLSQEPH
Kind of assay: MMF-Yne labelling of recombinant GSDMD competed by fumarate, intact MS. Format: binding. The conditions noted are these: 1 μM GSDMD. The procedure:
FIGS. 11A-E. Fumarate binds to GSDMD. (A) Immunoblot analysis of MMF-Yne bound proteins using a streptavidin-IR dye. (B) Representative MS spectra of GSDMD identified in streptavidin pulldowns subjected to mass spec. (C-D) Immunoblot analysis (C) and densitometry analysis (D) of streptavidin-IR dye detecting MMF-Yne labelled recombinant GSDMD incubated with the indicated concentrations of fumarate and copper clicked using a biotin-azide. (E) Intact MS analysis of recombinant GSDMD (1 μM) incubated in a succination reaction with DMSO (vehicle) or fumarate (25 μM) for 2 hours. A-E Representative images from 2 independent experiments..
Intact mass analysis of GSDMD protein was carried out using an Acquity UPLC (Waters Corporation, Milford, Mass.) coupled to a Synapt G2-Si (Waters) quadrupole time-of-flight mass spectrometer fitted with an electrospray ionization source. Liquid chromatography was carried out with a 3.0×50 mm(4 μm) MAbPac RP column (Thermo Scientific, Waltham, Mass.) using mobile phase A and B containing 0.1% (v/v) formic acid in water, and 0.1% (v/v) formic acid in acetonitrile, respectively. A total of 0.6 μg sample was injected and the protein eluted using a linear gradient of 10 to 70% B over 7.0 minutes at a flow rate of 0.3 ml/min. […]

In a further assay the target is T2, m.GSDMD (Mus musculus, UniProt Q9D8T2).
T2 sequence (Q9D8T2 1-487): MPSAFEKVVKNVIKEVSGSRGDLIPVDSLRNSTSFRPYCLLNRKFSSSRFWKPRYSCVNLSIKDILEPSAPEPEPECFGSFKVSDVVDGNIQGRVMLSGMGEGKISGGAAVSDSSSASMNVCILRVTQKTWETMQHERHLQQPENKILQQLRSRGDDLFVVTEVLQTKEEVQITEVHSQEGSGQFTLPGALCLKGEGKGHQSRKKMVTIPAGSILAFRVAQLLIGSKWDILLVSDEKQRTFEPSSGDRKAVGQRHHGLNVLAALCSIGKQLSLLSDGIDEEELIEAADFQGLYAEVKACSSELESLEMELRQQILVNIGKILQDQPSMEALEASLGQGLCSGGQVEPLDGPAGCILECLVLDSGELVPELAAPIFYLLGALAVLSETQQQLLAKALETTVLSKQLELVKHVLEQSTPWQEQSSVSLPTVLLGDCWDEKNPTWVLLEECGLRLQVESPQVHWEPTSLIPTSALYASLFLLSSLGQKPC
The assay can be described thus: In vitro succination reaction with LC-MS/MS peptide mapping. Format: binding. Particulars: recombinant m.GSDMD.

Where a name gives a salt, the structure may show the parent alone.

With `COC(=O)/C=C/C(=O)OC` [Fumarate, Dimethyl fumarate], the “concentration at which maximum occupancy of GSDMD was achieved” value on recombinant GSDMD was found to be 25 µM. For the same molecule, on m.GSDMD, the “In vitro cysteine succination sites” value is “same cysteines”.
